Legend:
h-GABA-A α5β3γ2 [1] = target: T1, h-GABA-A α5β3γ2 (Homo sapiens, UniProt P18507+P31644); experiment: [3H]flumazenil competition binding assay, membranes of HEK293 cells expressing GABAA receptors; details: displacement of [3H]-Flumazenil 0.5 nM, HEK293 cells expressing human receptors, mean of two determinations; Table 1
Outline: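 Membranes from HEK293 cells transiently expressing human α5β3γ2 GABAA receptors, in Krebs-tris buffer pH 7.5, competed against [3H]flumazenil for 1 hour at 4° C to equilibrium. Bound radioactivity collected on GF/C filters and counted by liquid scintillation; Ki values are means of two determinations.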

h-GABA-A α5β3γ2 [2] = target: T1, h-GABA-A α5β3γ2; experiment: Two-electrode voltage clamp electrophysiology in Xenopus laevis oocytes expressing GABAA receptors, modulation of GABA EC20 current; type: cell-based; set-up: host or cells: Xenopus laevis oocytes micro-injected with RNA transcripts of the subunits; details: Table 1; for Efficacy (GABA) %: % modulation of GABA EC20 = 100*(Fold increase-1); for Fold increase h-GABA-A α5β3γ2 oocyte: test compound at approx. 30 fold its Ki, GABA at EC20
Outline: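 Human α5β3γ2 GABAA receptors were expressed in Xenopus oocytes by RNA injection, with γ2 RNA 5–10-fold higher, and recorded 3–5 days later by two-electrode voltage clamp at −80 mV at room temperature. The test compound, at about 30× its Ki, was co-applied during a second GABA EC20 pulse. Efficacy is the extremum of the point-by-point ratio to the first response, expressed as 100*(Fold increase−1).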

SMILES | Ki (h-GABA-A α5β3γ2 [1]) [nM] | Efficacy (GABA) % (h-GABA-A α5β3γ2 [2]) [%] | Fold increase h-GABA-A α5β3γ2 oocyte (h-GABA-A α5β3γ2 [2])
Cc1onc(-c2ccc(C(F)(F)F)nc2)c1Cn1ncc(N2C[C@@H](C)O[C@@H](C)C2)cc1=O [Example 39, 5-(cis-2,6-dimethylmorpholin-4-yl)-2-[[5-methyl-3-[6-(trifluoromethyl)-3-pyridyl]isoxazol-4-yl]methyl]pyridazin-3-one] | 3.2 | 198 | 2.98
Cc1onc(-c2ccc(C(F)(F)F)nc2)c1Cn1ncc(N2CCN(C(=O)C3(C)CC3)CC2)cc1=O [Example 40, 5-[4-(1-methylcyclopropanecarbonyl)piperazin-1-yl]-2-[[5-methyl-3-[6-(trifluoromethyl)-3-pyridyl]isoxazol-4-yl]methyl]pyridazin-3-one] | 43.3 | 250 | 3.5
Cc1ccc(-c2noc(C)c2Cn2ncc(N3CCN4C(=O)CCC4C3)cc2=O)cn1 (stereo not drawn) [Example 43, 2-(1-((5-methyl-3-(6-methylpyridin-3-yl)isoxazol-4-yl)methyl)-6-oxo-1,6-dihydropyridazin-4-yl)hexahydropyrrolo[1,2-a]pyrazin-6(2H)-one] | 10 | 174 | 2.74
Cc1ccc(-c2noc(C)c2Cn2ncc(N3CCN4C(=O)OCC4C3)cc2=O)cn1 (stereo not drawn) [Example 44, 7-(1-((5-methyl-3-(6-methylpyridin-3-yl)isoxazol-4-yl)methyl)-6-oxo-1,6-dihydropyridazin-4-yl)tetrahydro-1H-oxazolo[3,4-a]pyrazin-3(5H)-one] | 9.5 | 181 | 2.81
Cc1ccc(-c2noc(C)c2Cn2ncc(N(C)C)cc2=O)cn1 [Example 45, 5-(dimethylamino)-2-((5-methyl-3-(6-methylpyridin-3-yl)isoxazol-4-yl)methyl)pyridazin-3(2H)-one] | 6.6 | 103 | 2.03
Cc1ccc(-c2noc(C)c2Cn2ncc(N3CCC4(CC3)COC4)cc2=O)cn1 [Example 46, 2-[[5-methyl-3-(6-methyl-3-pyridyl)isoxazol-4-yl]methyl]-5-(2-oxa-7-azaspiro[3.5]nonan-7-yl)pyridazin-3-one] | 15.2 | 107 | 2.07
Cc1ccc(-c2noc(C)c2Cn2ncc(N3C[C@H]4COC[C@H]4C3)cc2=O)cn1 [Example 49, 5-[(3aR,6aS)-1,3,3a,4,6,6a-hexahydrofuro[3,4-c]pyrrol-5-yl]-2-[[5-methyl-3-(6-methyl-3-pyridyl)isoxazol-4-yl]methyl]pyridazin-3-one] | 13 | 167 | 2.67
Cc1ccc(-c2noc(C)c2Cn2ncc(N3CCN[C@H](C)C3)cc2=O)cn1 [Example 50, 2-[[5-methyl-3-(6-methyl-3-pyridyl)isoxazol-4-yl]methyl]-5-[(3R)-3-methylpiperazin-1-yl]pyridazin-3-one] | 2.8 | 187 | 2.87
Cc1ccc(-c2noc(C)c2Cn2ncc(N3CCN[C@@H](C)C3)cc2=O)cn1 [Example 51, 2-[[5-methyl-3-(6-methyl-3-pyridyl)isoxazol-4-yl]methyl]-5-[(3S)-3-methylpiperazin-1-yl]pyridazin-3-one] | 3.3 | 182 | 2.82
Cc1onc(-c2ncc(Cl)cc2F)c1Cn1ncc(N2C[C@@H](C)O[C@@H](C)C2)cc1=O [Example 52, 2-[[3-(5-chloro-3-fluoro-2-pyridyl)-5-methyl-isoxazol-4-yl]methyl]-5-(cis-2,6-dimethylmorpholin-4-yl)pyridazin-3-one] | 0.7 | 135 | 2.35
Cc1onc(-c2ncc(Cl)cc2F)c1Cn1ncc(N2CCN(C(=O)C3(C)CC3)CC2)cc1=O [Example 53, 2-[[3-(5-chloro-3-fluoro-2-pyridyl)-5-methyl-isoxazol-4-yl]methyl]-5-[4-(1-methylcyclopropanecarbonyl)piperazin-1-yl]pyridazin-3-one] | 9.8 | 152 | 2.52
Cc1ccc(-c2noc(C)c2Cn2ncc(N3CCC(n4c(C)nnc4C)CC3)cc2=O)cn1 [Example 54, 5-[4-(3,5-dimethyl-1,2,4-triazol-4-yl)-1-piperidyl]-2-[[5-methyl-3-(6-methyl-3-pyridyl)isoxazol-4-yl]methyl]pyridazin-3-one] | 10.8 | 175 | 2.75
Cc1onc(-c2ccc(F)cc2)c1Cn1ncc(N2CCC(n3c(C)nnc3C)CC2)cc1=O [Example 55, 5-(4-(3,5-Dimethyl-4H-1,2,4-triazol-4-yl)piperidin-1-yl)-2-((3-(4-fluorophenyl)-5-methylisoxazol-4-yl)methyl)pyridazin-3(2H)-one] | 43.4 | 85 | 1.85
Cc1ccc(-c2noc(C)c2Cn2ncc(N3CC[C@@H](C(=O)NC4CC4)C3)cc2=O)cn1 [Example 56, (3R)—N-cyclopropyl-1-[1-[[5-methyl-3-(6-methyl-3-pyridyl)isoxazol-4-yl]methyl]-6-oxo-pyridazin-4-yl]pyrrolidine-3-carboxamide] | 33.4 | 247 | 3.47
Cc1ccc(-c2noc(C)c2Cn2ncc(N3CC[C@H](C(=O)NC4CC4)C3)cc2=O)cn1 [Example 57, (3S)—N-cyclopropyl-1-[1-[[5-methyl-3-(6-methyl-3-pyridyl)isoxazol-4-yl]methyl]-6-oxo-pyridazin-4-yl]pyrrolidine-3-carboxamide] | 56.2 | 198 | 2.98
Cc1ccc(-c2noc(C)c2Cn2ncc(N3CC4(C3)CN(C3CC3)C4)cc2=O)cn1 [Example 58, 5-(2-cyclopropyl-2,6-diazaspiro[3.3]heptan-6-yl)-2-[[5-methyl-3-(6-methyl-3-pyridyl)isoxazol-4-yl]methyl]pyridazin-3-one] | 70.4 | 209 | 3.09
Cc1ccc(-c2noc(C)c2Cn2ncc(N3CCN(C4CC4)[C@H](C)C3)cc2=O)cn1 [Example 59, 5-[(3R)-4-cyclopropyl-3-methyl-piperazin-1-yl]-2-[[5-methyl-3-(6-methyl-3-pyridyl)isoxazol-4-yl]methyl]pyridazin-3-one] | 15.4 | 157 | 2.57
Cc1ccc(-c2noc(C)c2Cn2ncc(N3CCN(C4CC4)[C@@H](C)C3)cc2=O)cn1 [Example 60, 5-[(3S)-4-cyclopropyl-3-methyl-piperazin-1-yl]-2-[[5-methyl-3-(6-methyl-3-pyridyl)isoxazol-4-yl]methyl]pyridazin-3-one] | 10.2 | 97 | 1.97
COc1ccccc1C1CCN(c2cnn(Cc3c(-c4ccc(C)nc4)noc3C)c(=O)c2)CC1 [Example 61, 5-[4-(2-methoxyphenyl)-1-piperidyl]-2-[[5-methyl-3-(6-methyl-3-pyridyl)isoxazol-4-yl]methyl]pyridazin-3-one] | 15.4 | 76 | 1.76
Cc1cc(-c2noc(C)c2Cn2ncc(N3C[C@@H](C)O[C@@H](C)C3)cc2=O)no1 [Example 62, 5-(cis-2,6-dimethylmorpholin-4-yl)-2-[[5-methyl-3-(5-methylisoxazol-3-yl)isoxazol-4-yl]methyl]pyridazin-3-one] | 0.6 | 88 | 1.88
Cc1cc(-c2noc(C)c2Cn2ncc(N3CCN(C4CC4)CC3)cc2=O)no1 [Example 63, 5-(4-cyclopropylpiperazin-1-yl)-2-[[5-methyl-3-(5-methylisoxazol-3-yl)isoxazol-4-yl]methyl]pyridazin-3-one] | 5.9 | 41 | 1.41
Cc1ccc(-c2noc(C)c2Cn2ncc(N(C)C3CC3)cc2=O)cn1 [Example 64, 5-(cyclopropyl(methyl)amino)-2-((5-methyl-3-(6-methylpyridin-3-yl)isoxazol-4-yl)methyl)pyridazin-3(2H)-one] | 1.8 | 108 | 2.08
Cc1ccc(-c2noc(C)c2Cn2ncc(N(C)C3COC3)cc2=O)cn1 [Example 65, 5-(methyl(oxetan-3-yl)amino)-2-((5-methyl-3-(6-methylpyridin-3-yl)isoxazol-4-yl)methyl)pyridazin-3(2H)-one] | 4.7 | 142 | 2.42
Cc1onc(-c2ccc(C(F)(F)F)nc2)c1Cn1ncc(N2CCN(C3CC3)CC2)cc1=O [Example 66, 5-(4-cyclopropylpiperazin-1-yl)-2-[[5-methyl-3-[6-(trifluoromethyl)-3-pyridyl]isoxazol-4-yl]methyl]pyridazin-3-one] | 26.4 | 121 | 2.21

Source: US11840528B2 (Hoffmann-La Roche Inc., priority 2018, dated 2023)
